Data reported in ChEMBL document CHEMBL4483862, “Open-source discovery of chemical leads for next-generation chemoprotective antimalarials” (2018).

System: Plasmodium berghei
Assay: Luciferase/luciferin-expressing antifolate-resistant parasites were used to infect a culture of HepG2 cells that were pre-incubated with compounds. Infected hepatocytes emit light due to the luciferase reaction. Assay results are presented as the percent inhibition of light emission compared to control. […]
Assay type: functional
Conditions: sporozoite; for IC90: read-out: LUCIFERASE INFECTION ASSAY - IC90
[1] = read-out: LUCIFERASE INFECTION ASSAY - IC50

Structure (SMILES) | IC90 [µM] | also measured
Cc1cccc(C)c1OC(=O)c1cn(Cc2ccccc2)nc1-c1cccnc1 | > 10 | IC50 (HEPG2TOX_HILL_SLOPE 0.808, HEPG2TOX_R_SQUARED 0.825, read-out: LUCIFERASE INFECTION ASSAY - IC50): > 10 µM
CCOC(=O)c1sc(N(NC(=O)c2ccccc2Cl)C(=O)c2ccccc2Cl)c2c1CC(C)(C)CC2=O | > 5.9 | IC50 (HEPG2TOX_HILL_SLOPE 5.11, HEPG2TOX_R_SQUARED 0.645, PBLUC_HILL_SLOPE 3.24, PBLUC_R_SQUARED 0.155, read-out: LUCIFERASE INFECTION ASSAY - IC50): 3.1 µM
COc1ccc(Nc2n[nH]c(NC(=O)Cc3c(Cl)cccc3Cl)c2C#N)cc1 | 0.506 | IC50 (FFLUC_HILL_SLOPE 14.5, FFLUC_R_SQUARED 0.631, HEPG2TOX_HILL_SLOPE 1.37, HEPG2TOX_R_SQUARED 0.939, PBLUC_HILL_SLOPE 1.1, PBLUC_R_SQUARED 0.834, read-out: LUCIFERASE INFECTION ASSAY - IC50): 0.069 µM
FC(F)(F)c1cccc(Nc2cc3[nH]c(-c4ccccn4)cc3cn2)c1 | > 10 | IC50 (HEPG2TOX_HILL_SLOPE 12.3, HEPG2TOX_R_SQUARED 0.757, PBLUC_HILL_SLOPE 15.4, PBLUC_R_SQUARED 0.209, read-out: LUCIFERASE INFECTION ASSAY - IC50): 9.04 µM
CCc1nn2c(=O)cc(CSc3nnc(-c4cc(C)cc(C)c4)o3)nc2s1 | > 10 | IC50 [1]: > 10 µM
c1ccc(-c2nc3sccn3c2CSc2nnnn2C2CCCC2)cc1 | > 10 | IC50 (PBLUC_HILL_SLOPE 2.99, PBLUC_R_SQUARED 0.0258, read-out: LUCIFERASE INFECTION ASSAY - IC50): 8.01 µM
O=C(CN1CCN(c2cccc(Cl)c2)CC1)Nc1nccs1 | > 9.8 | IC50 [1]: > 9.8 µM
C/C(=N\NC(=O)c1ccc(N/N=C(\C)c2ccccc2Br)cc1)c1ccccc1Br | > 10 | IC50 [1]: > 10 µM
NCc1cccc(-c2cc(-c3cc(C(F)(F)F)cc(C(F)(F)F)c3)cnc2N)c1 | > 8.02 | IC50 (FFLUC_HILL_SLOPE 0.255, FFLUC_R_SQUARED 0.011, PBLUC_HILL_SLOPE 2.95, PBLUC_R_SQUARED 0.223, read-out: LUCIFERASE INFECTION ASSAY - IC50): 7.98 µM
Cc1noc(-c2ccc(Cl)cc2)c1C(=O)ON=C(N)c1ccc(C(C)(C)C)cc1 | > 8.01 | IC50 (FFLUC_HILL_SLOPE 0.0669, FFLUC_R_SQUARED 0.264, read-out: LUCIFERASE INFECTION ASSAY - IC50): > 8.01 µM
Cc1cc(NC(=O)/C=C/c2cn(-c3ccccc3)nc2-c2cccnc2)ccc1N1CCN(C)CC1 | 4.23 | IC50 (PBLUC_HILL_SLOPE 11.7, PBLUC_R_SQUARED 0.29, read-out: LUCIFERASE INFECTION ASSAY - IC50): 3.5 µM
C=CCNC(=O)C(C)Sc1nnc(-c2ccc(C)cc2)c(-c2ccc(C)cc2)n1 (stereo not given) | 2.06 | IC50 (PBLUC_HILL_SLOPE 3.18, 2.13, PBLUC_R_SQUARED 0.929, 0.663, read-out: LUCIFERASE INFECTION ASSAY - IC50): 0.807 µM
CCCN(CCC)S(=O)(=O)c1ccc(-n2ncc(Cl)c(Cl)c2=O)cc1 | 2.67 | IC50 (FFLUC_HILL_SLOPE 2.22, FFLUC_R_SQUARED 0.495, HEPG2TOX_HILL_SLOPE 4.03, HEPG2TOX_R_SQUARED 0.969, PBLUC_HILL_SLOPE 5.8, PBLUC_R_SQUARED 0.662, read-out: LUCIFERASE INFECTION ASSAY - IC50): 1.83 µM
CCOc1ccc2nc(SCC(=O)N3Cc4ccccc4CC3C(=O)O)sc2c1 (stereo not given) | > 10 | IC50 [1]: > 10 µM
Cc1ccc2nc(CNc3ccccc3-c3ccccc3)cc(=O)n2c1 | > 10 | IC50 [1]: > 10 µM
Clc1ccc(N/N=C/Cc2nnnn2-c2ccccc2)cc1 | > 10.6 | IC50 (PBLUC_HILL_SLOPE 11.7, PBLUC_R_SQUARED 0.117, read-out: LUCIFERASE INFECTION ASSAY - IC50): 10.1 µM
O=C(CN1CCN(S(=O)(=O)c2cccs2)CC1)Nc1ccccc1C(=O)c1ccccc1 | > 10 | IC50 (PBLUC_HILL_SLOPE 1.98, PBLUC_R_SQUARED 0.361, read-out: LUCIFERASE INFECTION ASSAY - IC50): 5.33 µM
CCn1c(C(=O)OC)c(NC(=O)C2CCOC2)c2cc(NCC(C)c3ccccc3)cnc21 (stereo not given) | > 7.32 | IC50 (PBLUC_HILL_SLOPE 1.36, PBLUC_R_SQUARED 0.443, read-out: LUCIFERASE INFECTION ASSAY - IC50): 5.53 µM
COc1cc(/C=C/c2ccc3ccccc3n2)ccc1OCC(=O)Nc1cccc(C(F)(F)F)c1 | > 10 | IC50 (PBLUC_HILL_SLOPE 1.81, PBLUC_R_SQUARED 0.402, read-out: LUCIFERASE INFECTION ASSAY - IC50): 8.14 µM
Cc1ccccc1-n1nnc(C(=O)Nc2cccc(Br)c2)c1N | 4.24 | IC50 (PBLUC_HILL_SLOPE 0.945, PBLUC_R_SQUARED 0.824, read-out: LUCIFERASE INFECTION ASSAY - IC50): 0.414 µM

Structure (SMILES) | IC90 [µM] | also measured
Nc1ncnc(N/N=C/c2ccc(O)cc2O)c1[N+](=O)[O-] | > 10 | IC50 (FFLUC_HILL_SLOPE 17.8, FFLUC_R_SQUARED 0.491, HEPG2TOX_HILL_SLOPE 1.97, HEPG2TOX_R_SQUARED 0.831, read-out: LUCIFERASE INFECTION ASSAY - IC50): > 10 µM
O=C(CN1CCN(C(=O)CN2C(=O)NC3(CCCC3)C2=O)CC1)N1CCCC1 | > 10 | IC50 [1]: > 10 µM
COc1ccc(/C=C/C2=NNC(=O)CC2)cc1 | > 14.3 | IC50 (HEPG2TOX_HILL_SLOPE 0.708, HEPG2TOX_R_SQUARED 0.9, read-out: LUCIFERASE INFECTION ASSAY - IC50): > 14.3 µM
CCCCCc1ccc(NC(=O)NC2=NCCS2)cc1 | > 11.3 | IC50 [1]: > 11.3 µM
CCCCCCCCSC(=S)c1c(C)[nH]n(-c2ccccc2)c1=O | > 9.1 | IC50 (PBLUC_HILL_SLOPE 1.5, PBLUC_R_SQUARED 0.801, read-out: LUCIFERASE INFECTION ASSAY - IC50): > 9.1 µM
Nc1c(C(=O)c2ccc(Cl)cc2)sc(NCc2ccco2)c1C(=O)Nc1cc(Cl)ccc1Cl | 4.4 | IC50 (FFLUC_HILL_SLOPE 2.13, FFLUC_R_SQUARED 0.528, HEPG2TOX_HILL_SLOPE 16.1, HEPG2TOX_R_SQUARED 0.784, PBLUC_HILL_SLOPE 2.08, PBLUC_R_SQUARED 0.686, read-out: LUCIFERASE INFECTION ASSAY - IC50): 1.53 µM
COc1cc(OC)c2[nH]c(C(=O)Nc3ccc(-n4cccn4)cc3)cc2c1 | > 10 | IC50 (PBLUC_HILL_SLOPE 2.78, PBLUC_R_SQUARED 0.238, read-out: LUCIFERASE INFECTION ASSAY - IC50): 6.45 µM
COc1ccc(-c2cnn3c(N)c(-c4cccc(Cl)c4)cnc23)cc1OC | > 8.67 | IC50 (HEPG2TOX_HILL_SLOPE 8.92, HEPG2TOX_R_SQUARED 0.943, PBLUC_HILL_SLOPE 1.73, PBLUC_R_SQUARED 0.738, read-out: LUCIFERASE INFECTION ASSAY - IC50): 2.75 µM
O=C1C=CC(=O)N1c1ccccc1Br | > 13.1 | IC50 (PBLUC_HILL_SLOPE 18.8, PBLUC_R_SQUARED 0.535, read-out: LUCIFERASE INFECTION ASSAY - IC50): 12.7 µM
Cc1ccc(C(=O)COC(=O)Cc2n[nH]c(=O)c3ccccc23)s1 | 9 | IC50 (HEPG2TOX_HILL_SLOPE 1.97, HEPG2TOX_R_SQUARED 0.94, PBLUC_HILL_SLOPE 2.28, PBLUC_R_SQUARED 0.564, read-out: LUCIFERASE INFECTION ASSAY - IC50): 3.44 µM
CCCn1c(NC(=O)C2CCN(c3ccc4nnc(C(F)(F)F)n4n3)CC2)nc2ccccc21 | > 10 | IC50 [1]: 6.49 µM
CC1=C(C(=O)OCc2ccccc2)C(c2ccccc2OC(C)C)CC(=O)N1 (stereo not given) | > 8.7 | IC50 (FFLUC_HILL_SLOPE 12.1, FFLUC_R_SQUARED 0.679, read-out: LUCIFERASE INFECTION ASSAY - IC50): > 8.7 µM
COc1cc(OC)c(C(=O)/C=C/c2cnc(N3CCCC3)nc2)cc1Cl | > 10 | IC50 [1]: 7.4 µM
C/N=c1\scc(-c2ccc(OC(F)F)cc2)n1/N=C/c1ccccc1Br | 3.26 | IC50 (HEPG2TOX_HILL_SLOPE 2.13, HEPG2TOX_R_SQUARED 0.347, PBLUC_HILL_SLOPE 0.898, PBLUC_R_SQUARED 0.747, read-out: LUCIFERASE INFECTION ASSAY - IC50): 0.283 µM
CNC(=O)c1ccc(C)c(C)c1 | > 10 | IC50 [1]: > 10 µM
CC(OC(=O)c1cc(-c2ccccc2)nc2c1cnn2Cc1ccccc1)C(=O)NC(C)(C)C (stereo not given) | 6.73 | IC50 (PBLUC_HILL_SLOPE 5.07, PBLUC_R_SQUARED 0.772, read-out: LUCIFERASE INFECTION ASSAY - IC50): 4.36 µM
O=C(CN1CCN(c2ccc(C(F)(F)F)cn2)CC1)N1CCC(c2nc3ccccc3s2)CC1 | > 10 | IC50 (HEPG2TOX_HILL_SLOPE 13.7, HEPG2TOX_R_SQUARED 0.915, PBLUC_HILL_SLOPE 1.27, PBLUC_R_SQUARED 0.698, read-out: LUCIFERASE INFECTION ASSAY - IC50): 3.43 µM
Cc1ccc2nc(NC(=O)c3ccccc3)c(C(=O)NC3CCCCC3)n2c1 | 3.2 | IC50 (FFLUC_HILL_SLOPE 0.276, FFLUC_R_SQUARED 0.15, HEPG2TOX_HILL_SLOPE 1.74, HEPG2TOX_R_SQUARED 0.886, PBLUC_HILL_SLOPE 12, PBLUC_R_SQUARED 0.694, read-out: LUCIFERASE INFECTION ASSAY - IC50): 2.66 µM
CC(C)OC(=O)c1c(NC(=O)CSc2nnc(N)[nH]2)sc2c1CCCC2 | > 10 | IC50 (PBLUC_HILL_SLOPE 4.93, PBLUC_R_SQUARED 0.291, read-out: LUCIFERASE INFECTION ASSAY - IC50): 7.71 µM
OCCNc1nc(-c2cccnc2)nc2scc(-c3ccccc3)c12 | > 10 | IC50 (PBLUC_HILL_SLOPE 15.6, PBLUC_R_SQUARED 0.267, read-out: LUCIFERASE INFECTION ASSAY - IC50): 9.57 µM
